Reference: PMC12470154, “In Vitro Evaluation of Antimicrobial Amyloidogenic Peptides for the Treatment of Early and Mature Bacterial Biofilms” (International Journal of Molecular Sciences, 2025)

Key:
[1] = system: P. aeruginosa (2943 strain); experiment: Antibacterial activity on 0.7% agar (inhibition zone); format: cell-based, Pseudomonas aeruginosa; design: key: +: The presence of a bacterial growth inhibition zone; −: The absence of a bacterial growth inhibition zone; details: drop on 0.7% agar, 24 h
Experimental: (§1) Drops of the samples were applied to the surface of solidified 0.7% agar at the concentrations indicated in Table 2 and Supplementary S2 (Figures S1–S4). After 24 h of incubation, the results were evaluated based on the presence or absence (+/−) of inhibition zones.
(§2) Once the agar solidified, drops of peptide samples at the concentrations 1, 0.1, 0.01, and 0.001 mg/mL were applied to the agar surface.

MRSA (SA 180-F strain) [2] = experiment: Early biofilm formation, crystal violet staining; format: cell-based, methicillin-resistant Staphylococcus aureus; design: key: ↓: Decrease in the parameter (optical density) compared to the negative control; −: No decrease in the parameter; ↑: Reverse effect (increase in the optical density compared to the control); details: peptide present from inoculation, 24 h, OD 595 nm
Experimental: (§3) After 24 h of incubation, the medium was removed. To assess the total biofilm biomass, the wells were rinsed with sterile PBS solution and stained with 0.1% crystal violet. The dye bound to the surface was then removed using 95% ethanol. To assess the presence of metabolically active cells, 0.3% MTT (PanEco Ltd., Moscow, Russia) solution was added to each well, and the plates were incubated at 37 °C for 2 h. After incubation, the MTT solution was removed, 150 µL of DMSO (Chimmed, Moscow, Russia) and 25 µL of glycine buffer were added to each well, and the plates were left at room temperature for 15 min. The resulting solutions were transferred to a flat-bottom 96-well plate, and optical density was measured at 595 nm.

S. aureus (129B strain) [3] = experiment: Antibacterial activity in liquid medium (optical density); format: cell-based, Staphylococcus aureus; design: key to change of optical density vs negative control: ↓: Decrease in the parameter (optical density) compared to the negative control; −: No decrease in the parameter; ↑: Reverse effect (increase in the optical density compared to the control); details: 24 h, 37 °C; for change of optical density vs negative control: OD 595 nm
Experimental: (§4) To evaluate the antibacterial activity of peptides in liquid culture, a stationary-phase culture of the tested bacterial strain was diluted 100-fold in fresh medium containing peptides or gentamicin (positive control) at the specified concentrations. A total volume of 200 µL was added to each well of a 96-well round-bottom microtiter plate. After 24 h of incubation at 37 °C, the samples were transferred to a flat-bottom 96-well microtiter plate, and the optical density was measured at 595 nm. Separately, the optical density of medium containing peptides but no bacteria was measured. These values were used as baseline (zero) readings for subsequent data analysis.

MRSA (SA 180-F strain) [4] = experiment: Mature biofilms, MTT assay; format: cell-based, methicillin-resistant Staphylococcus aureus; design: key: ↓: Decrease in the parameter (optical density) compared to the negative control; −: No decrease in the parameter; ↑: Reverse effect (increase in the optical density compared to the control); details: mature biofilm: peptide added after 24 h, further 24 h; 0.01-10 mg/mL
Experimental: as §3
(§5) A stationary-phase culture of the tested strain was diluted 100-fold in fresh medium (200 µL per well) and added to the wells of a 96-well round-bottom plate. […] After another 24 h, the medium was removed and the wells were rinsed with sterile PBS to eliminate planktonic cells. The procedures for assessing total biofilm biomass and cell metabolic activity using crystal violet and MTT assays were performed in the same manner as described above for early-stage biofilm experiments.

E. coli (MG1655 strain) [5] = experiment: Mature biofilms, MTT assay; format: cell-based, Escherichia coli; details: mature biofilm
Experimental: as §3, §5

E. coli (MG1655 strain) [6] = experiment: Antibacterial activity in liquid medium (optical density); format: cell-based, Escherichia coli; design: key to change of optical density vs negative control: ↓: Decrease in the parameter (optical density) compared to the negative control; −: No decrease in the parameter; ↑: Reverse effect (increase in the optical density compared to the control); details: 24 h, 37 °C; for change of optical density vs negative control: OD 595 nm
Experimental: as §4

[7] = system: P. aeruginosa (2943 strain); experiment: as above; format: cell-based, Pseudomonas aeruginosa; design: key to change of optical density vs negative control: ↓: Decrease in the parameter (optical density) compared to the negative control; −: No decrease in the parameter; ↑: Reverse effect (increase in the optical density compared to the control); details: 24 h, 37 °C; for change of optical density vs negative control: OD 595 nm
Experimental: as §4

S. aureus (129B strain) [8] = experiment: Early biofilm formation, crystal violet staining; format: cell-based, Staphylococcus aureus; design: key: ↓: Decrease in the parameter (optical density) compared to the negative control; −: No decrease in the parameter; ↑: Reverse effect (increase in the optical density compared to the control); details: peptide present from inoculation, 24 h, OD 595 nm
Experimental: as §3

E. coli (MG1655 strain) [9] = experiment: Early biofilm formation, crystal violet staining; format: cell-based, Escherichia coli; design: key: ↓: Decrease in the parameter (optical density) compared to the negative control; −: No decrease in the parameter; ↑: Reverse effect (increase in the optical density compared to the control); details: peptide present from inoculation, 24 h, OD 595 nm
Experimental: as §3

MRSA (SA 180-F strain) [10] = experiment: Antibacterial activity on 0.7% agar (inhibition zone); format: cell-based, methicillin-resistant Staphylococcus aureus; design: key: +: The presence of a bacterial growth inhibition zone; −: The absence of a bacterial growth inhibition zone; details: drop on 0.7% agar, 24 h
Experimental: as §1, §2

MRSA (SA 180-F strain) [11] = experiment: Early biofilm formation, MTT assay; format: cell-based, methicillin-resistant Staphylococcus aureus; design: key: ↓: Decrease in the parameter (optical density) compared to the negative control; −: No decrease in the parameter; ↑: Reverse effect (increase in the optical density compared to the control); details: 24 h, 0.3% MTT 2 h 37 °C, OD 595 nm
Experimental: as §3

E. coli (MG1655 strain) [12] = experiment: Mature biofilms, MTT assay; format: cell-based, Escherichia coli; design: key: ↓: Decrease in the parameter (optical density) compared to the negative control; −: No decrease in the optical density; ↑: Reverse effect (increase in the optical density compared to the control); details: mature biofilm: peptide added after 24 h, further 24 h; 0.01-10 mg/mL
Experimental: as §3, §5

Sequence | bacterial growth inhibition zone ([1]; 0.001 mg/mL) | bacterial growth inhibition zone ([1]; 0.01 mg/mL) | bacterial growth inhibition zone ([1]; 0.1 mg/mL) | bacterial growth inhibition zone ([1]; 1 mg/mL) | change of optical density after crystal violet staining vs negative control (MRSA (SA 180-F strain) [2]) | concentration given with ↓ (decrease in optical density) (S. aureus (129B strain) [3]) | change of optical density vs negative control (S. aureus (129B strain) [3]) | change of optical density after MTT assay vs negative control (MRSA (SA 180-F strain) [4]) | residual viability of cells (MTT) (E. coli (MG1655 strain) [5]) | concentration given with ↓ (decrease in optical density) (E. coli (MG1655 strain) [6]) | change of optical density vs negative control (E. coli (MG1655 strain) [6]) | concentration given with ↓ (decrease in optical density) [7] | change of optical density vs negative control [7] | change of optical density after crystal violet staining vs negative control (S. aureus (129B strain) [8]) | change of optical density after crystal violet staining vs negative control (E. coli (MG1655 strain) [9]) | bacterial growth inhibition zone (MRSA (SA 180-F strain) [10]; 0.001 mg/mL) | bacterial growth inhibition zone (MRSA (SA 180-F strain) [10]; 0.01 mg/mL) | bacterial growth inhibition zone (MRSA (SA 180-F strain) [10]; 0.1 mg/mL) | bacterial growth inhibition zone (MRSA (SA 180-F strain) [10]; 1 mg/mL) | change of optical density after MTT assay vs negative control (MRSA (SA 180-F strain) [11]) | other results
RKKRRQRRRGGGGVVVHINGGKFGGGGSRQIKIWFQNRRMKWKK [R44K^S] | − | − | − | + | ↓ (1 mg/mL) | 10 mg/mL | ↓ (10 mg/mL) | ↓ (0.01 mg/mL) | did not inhibit | 0.1 mg/mL | ↓ (0.1 mg/mL) | 10 mg/mL | ↓ (10 mg/mL) | ↑ | ↑ | − | − | − | + | ↑ | bacterial growth inhibition zone ([1]; 1 mg/mL, listed as R44K^P): −; change of optical density after crystal violet staining vs negative control (MRSA (SA 180-F strain) [2]; listed as R44K^P): ↓ (10 mg/mL); change of optical density vs negative control (S. aureus (129B strain) [3]; listed as R44K^P): ↑; bacterial growth inhibition zone (MRSA (SA 180-F strain) [10]; 1 mg/mL, listed as R44K^P): −
ITDFGIFIGLGGGGSRQIKIWFQNRRMKWKK [I31K^P] |  |  |  |  |  | 0.1 mg/mL | ↓ (0.1 mg/mL) | ↓ (0.01 mg/mL) |  |  | − |  | ↑ | ↑ | ↑ |  |  |  |  | ↑ | change of optical density after MTT assay vs negative control (E. coli (MG1655 strain) [12]): −
RKKRRQRRRGGGGITDFGIFIGL [R23L^P] | − | − | − | + | ↓ (10 mg/mL) | 1 mg/mL | ↓ (1 mg/mL) | ↓ (0.01 mg/mL) | did not inhibit | 0.1 mg/mL | ↓ (0.1 mg/mL) | 10 mg/mL | ↓ (10 mg/mL) | ↑ | ↑ | − | − | − | + | ↑ | change of optical density after MTT assay vs negative control (E. coli (MG1655 strain) [12]): −
RKKRRQRRRGGGGVTDFGVFVEI [R23I^T, TAT cell-penetrating peptide linked via glycine linker to amyloidogenic fragment of S1 ribosomal protein of T. thermophilus] | − | − | − | + |  |  | ↑ |  | did not inhibit |  | ↑ | 10 mg/mL | ↓ (10 mg/mL) | ↑ | ↑ | − | − | − | + | ↑ | 
